# In patent US20030134884A1, “Neovascularization inhibitors” (priority 2000, published 2003):
# Experiments:
# [1] = tested on: Human Microvascular Endothelial Cells (HMVE); experiment: human microvascular endothelial cell growth inhibitory assay (Alamar Blue); type: cell-based; details: 72 h, cultured 3 days, 2% bovine fetal serum, Alamar Blue fluorescence, control well = 100%, read-out: IC50 (concentration showing 50% growth inhibitory activity)
# Protocol: The angiogenesis inhibitory action of compound (II) and an insulin sensitizer other than compound (II) was determined by a human microvascular endothelial cell growth inhibitory assay method. Human microvascular endothelial cells [Human Microvascular Endothelial Cells (HMVE), (produced by KURABO INDUSTRIES LTD., Japan)] (2×10^4/ml medium, 0.1 ml/well) in MCDB107 medium (GIBCO, US) containing 2% bovine fetal serum was dispensed to a 96 well collagen-coated microplate (produced by SUMITOMO BAKELITE CO., LTD., Japan) and a dimethylformamide (DMF) solution containing various test compounds was diluted and added to the test group. The cells were cultured at 37° C. in 5% CO2 for 3 days. Alamar Blue was added to each well and reacted at 37° C. for 4 hr. Using a fluorometer (Fluoroskan Ascent, produced by LabSystems, US), the fluorescence intensity was measured and the cell count of the well was compared with that of control. Taking the cell count of the control well as 100%, the concentration (IC50) showing 50% growth inhibitory activity was calcualted.
melting point [°C],SMILES,IC50 [1] [µM]
–,"Cc1oc(-c2ccccc2)nc1COc1ccc(CO/N=C(\CCC(=O)O)c2ccccc2)cc1 [compound (7), E-4-[4-(5-methyl-2-phenyl-4-oxazolylmethoxy)benzyloxyimino]-4-phenylbutyric acid]",23
–,"Cc1c(C)c2c(c(C)c1O)CCC(C)(COc1ccc(CC3SC(=O)NC3=O)cc1)O2 (stereo not shown) [compound (B), 5[[4-[(3,4-dihydro-6-hydroxy-2,5,7,8-tetramethyl-2H-1-benzopyran-2-yl)methoxy]phenyl]methyl]-2,4-thiazolidinedione]",107
130 to 131,"Cc1sc(-c2ccccc2)nc1COc1ccc(CCC[C@H]2OC(=O)NC2=O)cc1 [compound (D), (R)-(+)-5-[3-[4-[(5-methyl-2-phenyl-4-thiazolyl)methoxy]phenyl]propyl]-2,4-oxazolidinedione]",496
